Experimental findings from patent US9562035B2, “Benzamide derivative useful as FASN inhibitors for the treatment of cancer” (Janssen Pharmaceutica NV, priority 2013, dated 2017) are described below.

The target of experiment [1] is T1, hFASN enzyme (full length) (Homo sapiens, UniProt P49327).
T1 construct: 10 μL hFASN enzyme (full length, 300 ng, purified in house); made in house
As to the kind of experiment: Fatty Acid Synthase (FASN) Inhibition Scintillation Proximity Assay. It counts as biochemical. Conditions: for IC50: mean where tested more than once, ~ = standard error of pIC50 larger than 0.5; for inhibition at 10 µM: read-out: FASN % Effect @1E−05M. The essentials:
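Purified full-length human FASN (300 ng) incubated 60 min at room temperature with NADPH, [3H]-acetyl-CoA and malonyl-CoA in 100 mM KH2PO4 pH 7.5, 1 mM DTT; compound at 30 μM to 0.01 μM. [3H]-palmitate captured by SPA imaging beads; IC50 from 4-parameter fit, reported as pIC50.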
(SPA uses beads or plates that emit light when radiolabelled molecules are held near them.)

The target in experiment [2] is T2, FASN Keto-reductase Domain (Homo sapiens, UniProt P49327).
T2 construct: 10 μL hFASN enzyme (full length, 300 ng, purified in house) and 360 μM NADPH; made in house
T2 sequence (P49327 whole entry, the tested form may be a part): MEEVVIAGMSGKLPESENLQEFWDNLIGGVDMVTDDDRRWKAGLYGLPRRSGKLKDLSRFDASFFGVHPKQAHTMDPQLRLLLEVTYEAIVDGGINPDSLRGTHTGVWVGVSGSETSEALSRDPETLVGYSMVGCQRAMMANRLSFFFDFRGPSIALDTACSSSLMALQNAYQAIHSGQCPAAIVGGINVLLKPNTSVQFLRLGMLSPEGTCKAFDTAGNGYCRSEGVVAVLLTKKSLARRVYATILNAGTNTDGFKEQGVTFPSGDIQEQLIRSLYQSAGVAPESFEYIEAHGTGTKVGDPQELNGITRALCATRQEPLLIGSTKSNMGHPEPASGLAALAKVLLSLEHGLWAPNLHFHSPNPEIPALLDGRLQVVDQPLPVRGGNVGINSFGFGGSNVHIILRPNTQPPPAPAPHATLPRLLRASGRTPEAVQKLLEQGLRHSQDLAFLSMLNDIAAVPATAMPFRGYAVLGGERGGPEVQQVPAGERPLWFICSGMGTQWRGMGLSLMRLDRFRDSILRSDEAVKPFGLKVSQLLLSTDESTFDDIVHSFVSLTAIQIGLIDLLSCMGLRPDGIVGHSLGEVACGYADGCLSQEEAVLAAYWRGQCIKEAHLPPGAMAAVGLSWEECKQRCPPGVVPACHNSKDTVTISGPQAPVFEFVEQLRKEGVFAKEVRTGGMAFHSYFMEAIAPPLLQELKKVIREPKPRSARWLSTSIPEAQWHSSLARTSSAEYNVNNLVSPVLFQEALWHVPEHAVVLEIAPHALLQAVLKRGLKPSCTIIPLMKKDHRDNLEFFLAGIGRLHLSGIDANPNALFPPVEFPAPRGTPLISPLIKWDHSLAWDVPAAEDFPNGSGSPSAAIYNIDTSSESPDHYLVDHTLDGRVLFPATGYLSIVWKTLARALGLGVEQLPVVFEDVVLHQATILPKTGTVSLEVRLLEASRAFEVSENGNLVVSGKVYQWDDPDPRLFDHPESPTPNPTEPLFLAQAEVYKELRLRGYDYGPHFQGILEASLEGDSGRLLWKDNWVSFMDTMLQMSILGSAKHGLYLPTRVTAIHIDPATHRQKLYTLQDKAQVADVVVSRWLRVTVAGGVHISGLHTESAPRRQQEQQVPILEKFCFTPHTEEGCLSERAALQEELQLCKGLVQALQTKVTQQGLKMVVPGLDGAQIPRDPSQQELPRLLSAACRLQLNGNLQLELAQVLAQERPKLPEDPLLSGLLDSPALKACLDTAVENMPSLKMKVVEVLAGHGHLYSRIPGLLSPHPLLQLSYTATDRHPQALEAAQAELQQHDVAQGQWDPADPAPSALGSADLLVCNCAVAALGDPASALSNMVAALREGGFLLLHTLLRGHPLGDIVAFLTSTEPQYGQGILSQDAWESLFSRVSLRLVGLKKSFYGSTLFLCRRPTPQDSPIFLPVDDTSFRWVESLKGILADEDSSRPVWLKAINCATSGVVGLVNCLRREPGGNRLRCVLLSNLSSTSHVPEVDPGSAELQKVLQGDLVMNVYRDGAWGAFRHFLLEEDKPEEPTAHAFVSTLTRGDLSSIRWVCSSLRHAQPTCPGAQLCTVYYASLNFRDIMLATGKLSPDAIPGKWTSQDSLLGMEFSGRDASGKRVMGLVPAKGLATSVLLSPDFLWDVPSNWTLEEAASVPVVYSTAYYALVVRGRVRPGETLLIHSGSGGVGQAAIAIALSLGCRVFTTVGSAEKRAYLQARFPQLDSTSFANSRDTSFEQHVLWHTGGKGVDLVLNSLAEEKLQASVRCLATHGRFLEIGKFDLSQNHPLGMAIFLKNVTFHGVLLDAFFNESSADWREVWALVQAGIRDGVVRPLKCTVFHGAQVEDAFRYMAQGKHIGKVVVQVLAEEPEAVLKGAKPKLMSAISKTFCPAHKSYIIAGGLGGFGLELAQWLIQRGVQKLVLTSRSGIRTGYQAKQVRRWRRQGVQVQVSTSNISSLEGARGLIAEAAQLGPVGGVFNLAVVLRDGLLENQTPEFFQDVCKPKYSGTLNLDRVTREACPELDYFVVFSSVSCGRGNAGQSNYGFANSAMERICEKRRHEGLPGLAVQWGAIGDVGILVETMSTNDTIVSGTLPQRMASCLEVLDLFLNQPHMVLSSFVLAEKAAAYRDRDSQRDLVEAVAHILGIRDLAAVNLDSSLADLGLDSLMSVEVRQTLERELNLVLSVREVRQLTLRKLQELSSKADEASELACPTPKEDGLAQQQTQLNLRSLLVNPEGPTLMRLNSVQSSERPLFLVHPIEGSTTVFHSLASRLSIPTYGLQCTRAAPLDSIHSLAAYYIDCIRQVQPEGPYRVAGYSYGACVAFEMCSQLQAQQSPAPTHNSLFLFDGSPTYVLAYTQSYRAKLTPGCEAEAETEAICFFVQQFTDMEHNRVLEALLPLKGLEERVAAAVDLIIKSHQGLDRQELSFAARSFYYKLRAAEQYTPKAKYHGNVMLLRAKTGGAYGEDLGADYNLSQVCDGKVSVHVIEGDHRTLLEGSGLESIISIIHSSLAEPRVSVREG
As to the kind of experiment: Fatty Acid Synthase Keto-Reductase Domain (FASN KR) Inhibition. Type of experiment: biochemical. Conditions: mean where tested more than once; read-out: FASN K-R Domain pIC50 (converted). The essentials: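 Full-length human FASN (300 ng) in 100 mM KH2PO4 pH 7.5 with 360 μM NADPH and 180 mM ethyl acetoacetate (stock); A340 decrease read over 20 min at room temperature.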

Experiment [3] deals with A2780 ovarian cells. As to the kind of experiment: A2780 Ovarian Cell Proliferation Assay in Lipid Reduced Medium, without Palmitate. Type of experiment: cell-based. Conditions: Homo sapiens, A2780; lipid reduced medium, without palmitate, 96 h, MTT; read-out: Proliferation A2780 w/o Palmitate pIC50 (converted). The essentials:
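A2780 cells were seeded in 10% FCS medium and switched next day to 10% lipid-reduced serum without palmitate. Compounds at 0.01–30 μM were added with 0.2% DMSO, 0.2% fatty-acid-free BSA and 0.25% ethanol final. After 96 h, MTT absorbance at 544 nm was normalized to plate controls, and IC50/pIC50 came from a 4-parameter logistic fit.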

The test system of experiment [4] is A2780 ovarian cells. As to the kind of experiment: A2780 Ovarian Cell Proliferation Assay in Lipid Reduced Medium, with Palmitate (control). It counts as cell-based. Conditions: Homo sapiens, A2780; lipid reduced medium, 25 μM palmitate, 96 h, MTT; read-out: Proliferation A2780 with Palmitate pIC50 (converted). In outline:
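A2780 cells were seeded in RPMI1640 with 10% FCS, then switched next day to medium with 10% lipid-reduced serum. Compound was added with final 25 μM palmitate, 0.2% fatty-acid-free BSA and 0.2% DMSO, and incubated 96 h at 37 °C. Read-out was MTT absorbance at 544 nm; pIC50 = −log(IC50) from curve fit.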

T1 sequence (P49327 whole entry): as the sequence (P49327 whole entry, the tested form may be a part) above

Regarding `Cc1ccc(C(=O)N2CC(c3ccc(-c4ccnn4C)cc3)C2)cc1NC(=O)c1ccc(N(C)C2CCN(C)CC2)nc1` [Compound 61, 6-(methyl(1-methylpiperidin-4-yl)amino)-N-(2-methyl-5-(3-(4-(1-methyl-1H-pyrazol-5-yl)phenyl)azetidine-1-carbonyl)phenyl)nicotinamide], the IC50 in experiment [1] is 15.5 nM; in experiment [2] it was 69.2 nM; with A2780 ovarian cells [3] it was approximately 91.2 nM; in the experiment with A2780 ovarian cells [4], 11000 nM. Besides, the inhibition at 10 µM in experiment [1] was determined as 103%.
Taken in the same sequence, the figures for `Cc1ccc(C(=O)N2CC(c3ccc(-c4ccnn4C)cc3)C2)cc1NC(=O)c1ccc(NC2CCC2)nc1` [Compound 62, 6-(cyclobutylamino)-N-(2-methyl-5-(3-(4-(1-methyl-1H-pyrazol-5-yl)phenyl)azetidine-1-carbonyl)phenyl)nicotinamide] were 16.2 nM, 51.3 nM, 74.1 nM, 4170 nM and 103%.
Regarding `CC(C)Nc1ccc(C(=O)Nc2cc(C(=O)N3CC(c4ccc(-c5ccnc6ccccc56)cc4)C3)ccc2Cl)cn1` [Compound 63, N-(2-chloro-5-(3-(4-(quinolin-4-yl)phenyl)azetidine-1-carbonyl)phenyl)-6-(isopropylamino)nicotinamide], the IC50 in experiment [1] was 27.5 nM; in experiment [2] it was 24.5 nM; in the experiment on A2780 ovarian cells [3], 53.7 nM; in the experiment on A2780 ovarian cells [4], 3020 nM. Moreover, in experiment [1], the inhibition at 10 µM was determined as 100%.
Taken in the same sequence, the figures for `CC(C)Nc1ccc(C(=O)Nc2cc(C(=O)N3CC(c4ccc(-c5cnn(C)c5)cc4)C3)ccc2Cl)cn1` [Compound 65, N-(2-chloro-5-(3-(4-(1-methyl-1H-pyrazol-4-yl)phenyl)azetidine-1-carbonyl)phenyl)-6-(isopropylamino)nicotinamide] were 20.9 nM, 28.8 nM, 56.2 nM, more than 10000 nM and 99%.
As for `CC(C)Nc1ccc(C(=O)Nc2cc(C(=O)N3CCC(c4ccc(-c5ccc6cnccc6c5)cc4)CC3)ccc2Cl)cn1` [Compound 67, N-(2-chloro-5-(4-(4-(isoquinolin-6-yl)phenyl)piperidine-1-carbonyl)phenyl)-6-(isopropylamino)nicotinamide], the IC50 in experiment [1] was 151 nM; in experiment [2], approximately 603 nM; with A2780 ovarian cells [3], 234 nM; in the experiment with A2780 ovarian cells [4], 240 nM. For the same molecule, the inhibition at 10 µM in experiment [1] came to 92%.
Taken in the same sequence, the figures for `CC(C)Nc1ccc(C(=O)Nc2cc(C(=O)N3CCC(c4ccc(-c5ccnc6ccccc56)cc4)CC3)ccc2Cl)cn1` [Compound 68, N-(2-chloro-5-(4-(4-(quinolin-4-yl)phenyl)piperidine-1-carbonyl)phenyl)-6-(isopropylamino)nicotinamide] were 31.6 nM, 64.6 nM, 195 nM, 5250 nM and 118%.
Taken in the same sequence, the figures for `CC(C)Nc1ccc(C(=O)Nc2cc(C(=O)N3CCC(c4ccc(-c5cnn(C)c5)cc4)CC3)ccc2Cl)cn1` [Compound 69, N-(2-chloro-5-(4-(4-(1-methyl-1H-pyrazol-4-yl)phenyl)piperidine-1-carbonyl)phenyl)-6-(isopropylamino)nicotinamide] were 28.8 nM, 41.7 nM, 75.9 nM, 7590 nM and 98%.
With `CC(C)Nc1ccc(C(=O)Nc2cc(C(=O)N3CCC(c4ccc(-c5ccnn5C)cc4)CC3)ccc2Cl)cn1` [Compound 70, N-(2-chloro-5-(4-(4-(1-methyl-1H-pyrazol-5-yl)phenyl)piperidine-1-carbonyl)phenyl)-6-(isopropylamino)nicotinamide], the IC50 in experiment [1] is 56.2 nM; in experiment [2], 245 nM; in the experiment with A2780 ovarian cells [3], 437 nM; with A2780 ovarian cells [4], 3550 nM. In experiment [1], the inhibition at 10 µM came out at 109%.
With `CC(C)Nc1ccc(C(=O)Nc2cc(C(=O)N3CCC(c4ccc(-c5cccnc5)cc4)CC3)ccc2Cl)cn1` [Compound 71, N-(2-chloro-5-(4-(4-(pyridin-3-yl)phenyl)piperidine-1-carbonyl)phenyl)-6-(isopropylamino)nicotinamide], the IC50 in experiment [1] was 47.9 nM; in experiment [2], 234 nM; in the experiment on A2780 ovarian cells [3], 447 nM; in the experiment with A2780 ovarian cells [4], 5250 nM. For the same molecule, the inhibition at 10 µM in experiment [1] worked out at 101%.
Take `CC(C)Nc1ccc(C(=O)Nc2cc(C(=O)N3CCC(c4ccc(-c5ccncc5)cc4)CC3)ccc2Cl)cn1` [Compound 72, N-(2-chloro-5-(4-(4-(pyridin-4-yl)phenyl)piperidine-1-carbonyl)phenyl)-6-(isopropylamino)nicotinamide]: the IC50 in experiment [1] is 39.8 nM; in experiment [2], 251 nM; in the experiment on A2780 ovarian cells [3] it was 513 nM; in the experiment on A2780 ovarian cells [4], 2630 nM. Also, the inhibition at 10 µM in experiment [1] was determined as 110%.
For `Cc1ccc(C(=O)N2CC(c3ccc(-c4cnn(C)c4)cc3)C2)cc1NC(=O)c1ccc2ccccc2n1` [Compound 79, N-(2-methyl-5-(3-(4-(1-methyl-1H-pyrazol-4-yl)phenyl)azetidine-1-carbonyl)phenyl)quinoline-2-carboxamide] the same measures were 93.3 nM, 182 nM, 525 nM, approximately 9550 nM and 108%.
Taken in the same sequence, the figures for `Cc1ccc(C(=O)N2CC(c3ccc(-c4cnn(C)c4)cc3)C2)cc1NC(=O)c1ccccn1` [Compound 80, N-(2-methyl-5-(3-(4-(1-methyl-1H-pyrazol-4-yl)phenyl)azetidine-1-carbonyl)phenyl)picolinamide] were 51.3 nM, 234 nM, 692 nM, more than 15100 nM and 110%.
For `Cc1ccc(C(=O)N2CC(c3ccc(-c4cnn(C)c4)cc3)C2)cc1NC(=O)c1ccccc1F` [Compound 82, 2-fluoro-N-(2-methyl-5-(3-(4-(1-methyl-1H-pyrazol-4-yl)phenyl)azetidine-1-carbonyl)phenyl)benzamide] the same measures were 22.9 nM, 85.1 nM, 95.5 nM, more than 10000 nM and 98%.
For the molecule `Cc1ccc(C(=O)N2CC(c3ccc(-c4cnn(C)c4)cc3)C2)cc1NC(=O)c1cccs1` [Compound 84, N-(2-methyl-5-(3-(4-(1-methyl-1H-pyrazol-4-yl)phenyl)azetidine-1-carbonyl)phenyl)thiophene-2-carboxamide], the IC50 in experiment [1] was 37.2 nM; in experiment [2], 162 nM; in the experiment on A2780 ovarian cells [3] it was 234 nM; in the experiment with A2780 ovarian cells [4] it was more than 10000 nM. Further, the inhibition at 10 µM in experiment [1] is 103%.
For `Cc1ccc(C(=O)N2CCC(c3ccc(-c4cnn(C)c4)cc3)CC2)cc1NC(=O)C1CCCCC1` [Compound 86, N-(2-methyl-5-(4-(4-(1-methyl-1H-pyrazol-4-yl)phenyl)piperidine-1-carbonyl)phenyl)cyclohexanecarboxamide] the same measures were 22.4 nM, 75.9 nM, 182 nM, more than 10000 nM and 106%.
Taken in the same sequence, the figures for `Cc1ccc(C(=O)N2CCC(c3ccc(-c4cnn(C)c4)cc3)CC2)cc1NC(=O)C(C)(C)C` [Compound 87, N-(2-methyl-5-(4-(4-(1-methyl-1H-pyrazol-4-yl)phenyl)piperidine-1-carbonyl)phenyl)pivalamide] were 182 nM, 288 nM, 575 nM, more than 10000 nM and 96%.
On to `Cc1ccc(C(=O)N2CCC(c3ccc(-c4cnn(C)c4)cc3)CC2)cc1NC(=O)C1CCCC1` [Compound 88, N-(2-methyl-5-(4-(4-(1-methyl-1H-pyrazol-4-yl)phenyl)piperidine-1-carbonyl)phenyl)cyclopentanecarboxamide], for which the IC50 was 35.5 nM in experiment [1], 126 nM in experiment [2], 209 nM with A2780 ovarian cells [3] and more than 10000 nM in the experiment on A2780 ovarian cells [4]. Besides, the inhibition at 10 µM in experiment [1] was 100%.
Taken in the same sequence, the figures for `Cc1ccc(C(=O)N2CCC(c3ccc(-c4cnn(C)c4)cc3)CC2)cc1NC(=O)c1ccc(N(C)C(C)C)nc1` [Compound 92, 6-(Isopropyl(methyl)amino)-N-(2-methyl-5-(4-(4-(1-methyl-1H-pyrazol-4-yl)phenyl)piperidine-1-carbonyl)phenyl)nicotinamide] were 16.2 nM, 30.9 nM, 9.12 nM, 6030 nM and 100%.
